Source: publication PMC12085588 (Scientific Reports, 2025)
Read-outs that look alike come from different tables or passages of the source.

What was measured:
[1] = system: IAV H1N1 strain A/Puerto Rico/8/1934; assay: microbe, parasite or virus in culture; assay type: cell-based, influenza A virus
[2] = system: host antiviral genes (IFITM-1, ISG15, ISG20, Mx-A, OAS-1, RSAD2, SHFL) in A549 cells; assay type: cell-based, human
[3] = system: dengue virus serotype 2 (DENV-2); details: cells treated 2 h before viral infection (-2 h); ref 15 (Oo et al.); cited from earlier work
[4] = system: IAV H1N1 strain A/Puerto Rico/8/1934; assay: microbe, parasite or virus in culture; assay type: cell-based, influenza A virus; remark: listed apart in the source
[5] = system: IAV H1N1 strain A/Puerto Rico/8/1934; assay: microbe, parasite or virus in culture; assay type: cell-based, influenza A virus; remark: listed apart in the source
A549 cells = assay: Cytotoxicity assay; assay type: cell-based, human
Cytotoxicity assay = assay type: cell-based, human; details: human, A549 cells
[6] = system: IAV H1N1 strain A/Puerto Rico/8/1934; assay type: cell-based, influenza A virus
[7] = system: IAV H1N1 strain A/Puerto Rico/8/1934; assay: microbe, parasite or virus in culture; assay type: cell-based, influenza A virus; remark: listed apart in the source
[8] = system: IAV H1N1 strain A/Puerto Rico/8/1934; assay: microbe, parasite or virus in culture; assay type: cell-based, influenza A virus; details: for IC50: Influenza A virus, H1N1, A549, 48 h
[9] = after 48 h of incubation at concentrations of up to 1000 μM

Which results are given for `COc1ccc(-c2cc(=O)c3c(O)cc(O[C@@H]4O[C@H](CO[C@@H]5O[C@@H](C)[C@H](O)[C@@H](O)[C@H]5O)[C@@H](O)[C@H](O)[C@H]4O)cc3o2)cc1O` [Diosmin, diosmetin 7-O-rutinoside]?
viral RNA reduction, virucidal assay ([1]; 25 μM): exceeding 40%; IC50 ([1]; Influenza A virus, H1N1, A549, read-out: IC50 of diosmin, virucidal assay): 41.3 ± 4.56 µM; fold change of ISG15 expression (relative quantification) [2]: 6.774; fold change of Mx-A expression (relative quantification) [2]: 2.163; fold change of OAS-1 expression (relative quantification) [2]: 2.035; fold change of SHFL expression (relative quantification) [2]: 4.148; suppression of DENV-2 RNA [3]: over 50%; viral RNA reduction, attachment assay ([4]; 25 μM): exceeding 40%; IC50 ([4]; Influenza A virus, H1N1, A549, read-out: IC50 of diosmin, attachment assay): 13.3 ± 2.37 µM; reduction of viral RNA, entry assay ([5]; 25 μM): under 40%; IC50 ([5]; Influenza A virus, H1N1, A549, read-out: IC50 of diosmin, entry assay): 39.2 ± 0.63 µM; cytotoxicity on A549 cells (A549 cells; after 48 h of incubation at concentrations of up to 5000 μM): no significant cytotoxicity; CC50 at 3 days (Cytotoxicity assay): 11300 µM; percentage of viral RNA copy numbers vs virus control [6]: significant reduction; viral RNA reduction, post-entry assay ([7]; 25 μM): exceeding 40%; IC50 ([7]; Influenza A virus, H1N1, A549, read-out: IC50 of diosmin, post-entry assay): 12.2 ± 1.55 µM; viral RNA levels [8]: less than 20%; IC50 [8]: 2.91 ± 3.22 µM

With `O=c1c(O)c(-c2ccc(O)c(O)c2)oc2cc(O)ccc12` [Fisetin] as the compound, how does the “cytotoxicity on A549 cells” value (A549 cells; [9]) read?
Its value is “no significant cytotoxicity”.

What about the CC50 at 3 days (Cytotoxicity assay) of the same compound?
Its CC50 at 3 days is 1190 ± 3.52 µM.

What about the IC50 [8] of the same compound?
The IC50 was 143 ± 6.19 µM.

With `O=c1cc(-c2ccc(O)c(O)c2)oc2c([C@@H]3O[C@H](CO)[C@@H](O)[C@H](O)[C@H]3O)c(O)cc(O)c12` [Orientin] as the compound, how does the “cytotoxicity on A549 cells” value (A549 cells; [9]) read?
The value was “no significant cytotoxicity”.

What about the CC50 at 3 days (Cytotoxicity assay) of the same compound?
The CC50 at 3 days was 1043 ± 3.41 µM.

What about the IC50 [8] of the same compound?
The IC50 was 8.98 ± 2.03 µM.
